Key:
Assay in all cases: EC50 assay: Ba/F3 stable cell proliferation (CCK-8, 72 h)
Format in all cases: cell-based
Ba/F3 stable cells [1] = target: T1, Ba/F3 stable cells (Homo sapiens, UniProt P00533, DUP767-769, cells depend on it); details: Ba/F3-EGFR V769-D770insASV cells
T1 construct: EC50 Ba/F3-EGFR V769-D770insASV; other: Ba/F3-EGFR V769-D770insASV cells, 72 h, CCK-8
Procedure, shortened: (§1)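 Ba/F3 stable cells were seeded at 4,000 cells/90 μL/well in 96-well plates and held 2 h at 37° C. in 5% CO2, then given 10 μL of serially titrated compound (0.1% DMSO final). After 72 h at 37° C., CCK-8 reagent was added for 4 hours and absorbance read at 450 nm to derive EC50.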

Ba/F3 stable cells [2] = target: T2, Ba/F3 stable cells (Homo sapiens, UniProt P04626, DUP772-775, cells depend on it); details: Ba/F3-HER2 A775-G776insYVMA cells
T2 construct: EC50 Ba/F3-HER2 A775-G776insYVMA; other: Ba/F3-HER2 A775-G776insYVMA cells, 72 h, CCK-8
Procedure, shortened: as §1

Ba/F3 stable cells [3] = target: T3, Ba/F3 stable cells (Homo sapiens, UniProt P00533, INS763FQEA, cells depend on it); details: Ba/F3-EGFR A763-Y764insFQEA cells
T3 construct: EC50 Ba/F3-EGFR A763-Y764insFQEA; other: Ba/F3-EGFR A763-Y764insFQEA cells, 72 h, CCK-8
Procedure, shortened: as §1

Ba/F3 stable cells [4] = target: T4, Ba/F3 stable cells (Homo sapiens, UniProt P00533, T790M/L858R, cells depend on it); details: Ba/F3-EGFR L858R-T790M cells
T4 construct: EC50 Ba/F3-EGFR L858R-T790M; other: Ba/F3-EGFR L858R-T790M cells, 72 h, CCK-8
Procedure, shortened: as §1

Ba/F3 stable cells [5] = target: T5, Ba/F3 stable cells (Homo sapiens, UniProt P00533, DUP768-770, cells depend on it); details: Ba/F3-EGFR D770-N771insSVD cells
T5 construct: EC50 Ba/F3-EGFR D770-N771insSVD; other: Ba/F3-EGFR D770-N771insSVD cells, 72 h, CCK-8
Procedure, shortened: as §1

Ba/F3 stable cells [6] = target: T6, Ba/F3 stable cells (Homo sapiens, UniProt P00533, DUP771-773, cells depend on it); details: Ba/F3-EGFR H773-V774insNPH cells
T6 construct: EC50 Ba/F3-EGFR H773-V774insNPH; other: Ba/F3-EGFR H773-V774insNPH cells, 72 h, CCK-8
Procedure, shortened: as §1

T5 sequence (P00533 with tags, fused parts or gaps DUP768-770): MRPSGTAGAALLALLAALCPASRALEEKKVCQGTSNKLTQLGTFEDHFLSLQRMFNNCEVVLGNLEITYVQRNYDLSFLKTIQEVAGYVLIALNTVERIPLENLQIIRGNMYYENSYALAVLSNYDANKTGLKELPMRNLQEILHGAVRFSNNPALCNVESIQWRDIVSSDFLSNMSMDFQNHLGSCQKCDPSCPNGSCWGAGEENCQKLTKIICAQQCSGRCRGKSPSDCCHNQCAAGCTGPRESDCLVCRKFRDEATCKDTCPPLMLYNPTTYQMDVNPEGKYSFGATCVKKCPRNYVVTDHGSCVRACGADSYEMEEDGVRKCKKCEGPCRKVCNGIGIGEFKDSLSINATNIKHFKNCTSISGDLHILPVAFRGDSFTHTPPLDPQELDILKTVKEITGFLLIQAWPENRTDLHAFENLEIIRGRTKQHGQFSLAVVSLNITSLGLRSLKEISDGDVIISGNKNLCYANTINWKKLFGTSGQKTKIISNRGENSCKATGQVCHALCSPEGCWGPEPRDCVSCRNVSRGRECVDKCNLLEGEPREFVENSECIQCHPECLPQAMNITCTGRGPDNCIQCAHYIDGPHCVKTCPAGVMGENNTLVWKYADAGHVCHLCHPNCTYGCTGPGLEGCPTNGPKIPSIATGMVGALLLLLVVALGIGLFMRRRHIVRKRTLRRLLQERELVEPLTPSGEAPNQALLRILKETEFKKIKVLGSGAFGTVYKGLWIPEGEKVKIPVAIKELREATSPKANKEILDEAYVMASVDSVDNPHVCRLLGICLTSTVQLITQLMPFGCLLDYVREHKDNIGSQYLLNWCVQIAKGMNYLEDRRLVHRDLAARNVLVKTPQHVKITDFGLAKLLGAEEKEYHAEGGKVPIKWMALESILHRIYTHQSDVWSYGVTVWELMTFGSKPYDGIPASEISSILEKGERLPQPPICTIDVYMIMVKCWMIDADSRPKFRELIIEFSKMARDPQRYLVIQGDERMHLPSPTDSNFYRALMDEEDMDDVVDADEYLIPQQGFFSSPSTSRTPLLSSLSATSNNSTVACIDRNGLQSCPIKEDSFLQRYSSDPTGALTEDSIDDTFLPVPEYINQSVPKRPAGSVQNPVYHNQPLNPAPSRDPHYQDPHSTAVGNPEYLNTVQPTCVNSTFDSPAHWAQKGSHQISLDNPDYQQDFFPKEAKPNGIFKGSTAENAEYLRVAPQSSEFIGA
T4 sequence (P00533 whole entry T790M/L858R): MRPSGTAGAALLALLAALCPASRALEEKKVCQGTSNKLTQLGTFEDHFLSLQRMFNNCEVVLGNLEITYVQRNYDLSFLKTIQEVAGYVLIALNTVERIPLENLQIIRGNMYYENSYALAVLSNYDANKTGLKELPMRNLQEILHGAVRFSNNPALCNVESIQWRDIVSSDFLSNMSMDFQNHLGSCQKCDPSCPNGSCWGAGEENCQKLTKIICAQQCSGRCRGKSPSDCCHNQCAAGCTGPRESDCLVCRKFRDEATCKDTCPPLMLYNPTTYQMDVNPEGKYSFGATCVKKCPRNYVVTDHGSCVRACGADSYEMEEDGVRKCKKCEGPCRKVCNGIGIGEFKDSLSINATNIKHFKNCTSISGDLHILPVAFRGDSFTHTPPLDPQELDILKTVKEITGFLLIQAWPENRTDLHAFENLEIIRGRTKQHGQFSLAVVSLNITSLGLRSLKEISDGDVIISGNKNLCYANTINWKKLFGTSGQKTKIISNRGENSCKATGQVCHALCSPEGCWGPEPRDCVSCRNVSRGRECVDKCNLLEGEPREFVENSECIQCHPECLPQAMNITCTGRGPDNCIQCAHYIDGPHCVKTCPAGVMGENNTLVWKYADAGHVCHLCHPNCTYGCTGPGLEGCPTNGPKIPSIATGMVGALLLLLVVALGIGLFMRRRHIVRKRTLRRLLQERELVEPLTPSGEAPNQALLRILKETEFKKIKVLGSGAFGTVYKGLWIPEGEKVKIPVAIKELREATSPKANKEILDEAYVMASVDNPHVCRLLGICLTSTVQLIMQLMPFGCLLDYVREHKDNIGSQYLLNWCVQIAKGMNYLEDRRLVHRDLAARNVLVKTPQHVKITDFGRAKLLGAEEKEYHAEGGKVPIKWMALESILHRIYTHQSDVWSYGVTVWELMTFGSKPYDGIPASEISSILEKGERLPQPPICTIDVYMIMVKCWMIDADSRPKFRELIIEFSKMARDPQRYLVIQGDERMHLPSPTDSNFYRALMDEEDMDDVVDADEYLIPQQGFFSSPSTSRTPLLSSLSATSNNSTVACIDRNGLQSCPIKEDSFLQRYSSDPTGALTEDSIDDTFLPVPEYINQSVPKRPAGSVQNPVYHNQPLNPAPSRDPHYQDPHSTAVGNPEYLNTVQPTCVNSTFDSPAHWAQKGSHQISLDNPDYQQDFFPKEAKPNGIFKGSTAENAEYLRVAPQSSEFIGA
T6 sequence (P00533 with tags, fused parts or gaps DUP771-773): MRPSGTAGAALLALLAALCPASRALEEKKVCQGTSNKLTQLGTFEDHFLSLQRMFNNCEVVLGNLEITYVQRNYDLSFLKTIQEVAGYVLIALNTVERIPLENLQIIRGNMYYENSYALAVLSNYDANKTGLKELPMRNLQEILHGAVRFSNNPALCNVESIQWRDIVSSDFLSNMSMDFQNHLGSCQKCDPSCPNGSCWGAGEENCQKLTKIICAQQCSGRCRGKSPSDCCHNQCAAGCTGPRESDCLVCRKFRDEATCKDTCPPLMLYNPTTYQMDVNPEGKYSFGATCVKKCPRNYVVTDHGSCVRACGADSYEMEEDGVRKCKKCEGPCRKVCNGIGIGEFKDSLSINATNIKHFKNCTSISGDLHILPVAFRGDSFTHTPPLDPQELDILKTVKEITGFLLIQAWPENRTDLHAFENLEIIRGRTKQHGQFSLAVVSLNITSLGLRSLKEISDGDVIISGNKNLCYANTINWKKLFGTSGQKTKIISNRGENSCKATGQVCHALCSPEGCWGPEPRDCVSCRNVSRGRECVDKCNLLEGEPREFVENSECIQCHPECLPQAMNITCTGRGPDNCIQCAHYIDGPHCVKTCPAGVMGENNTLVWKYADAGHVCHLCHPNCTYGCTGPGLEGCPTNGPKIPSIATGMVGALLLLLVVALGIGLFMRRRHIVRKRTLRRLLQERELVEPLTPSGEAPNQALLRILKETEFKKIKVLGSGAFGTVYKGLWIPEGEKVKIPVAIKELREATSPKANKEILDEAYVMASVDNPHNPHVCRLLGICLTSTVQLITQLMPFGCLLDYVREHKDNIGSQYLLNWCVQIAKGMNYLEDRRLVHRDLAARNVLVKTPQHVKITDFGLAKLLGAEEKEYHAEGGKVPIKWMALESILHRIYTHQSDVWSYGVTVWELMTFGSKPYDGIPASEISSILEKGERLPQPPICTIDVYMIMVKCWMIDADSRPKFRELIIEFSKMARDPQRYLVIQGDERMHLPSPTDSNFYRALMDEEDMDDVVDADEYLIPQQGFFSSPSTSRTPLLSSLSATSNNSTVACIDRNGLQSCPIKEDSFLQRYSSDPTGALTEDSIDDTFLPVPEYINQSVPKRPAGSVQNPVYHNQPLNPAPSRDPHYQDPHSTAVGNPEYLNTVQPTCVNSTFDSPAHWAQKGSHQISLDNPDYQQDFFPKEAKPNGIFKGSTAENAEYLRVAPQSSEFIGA
T1 sequence (P00533 with tags, fused parts or gaps DUP767-769): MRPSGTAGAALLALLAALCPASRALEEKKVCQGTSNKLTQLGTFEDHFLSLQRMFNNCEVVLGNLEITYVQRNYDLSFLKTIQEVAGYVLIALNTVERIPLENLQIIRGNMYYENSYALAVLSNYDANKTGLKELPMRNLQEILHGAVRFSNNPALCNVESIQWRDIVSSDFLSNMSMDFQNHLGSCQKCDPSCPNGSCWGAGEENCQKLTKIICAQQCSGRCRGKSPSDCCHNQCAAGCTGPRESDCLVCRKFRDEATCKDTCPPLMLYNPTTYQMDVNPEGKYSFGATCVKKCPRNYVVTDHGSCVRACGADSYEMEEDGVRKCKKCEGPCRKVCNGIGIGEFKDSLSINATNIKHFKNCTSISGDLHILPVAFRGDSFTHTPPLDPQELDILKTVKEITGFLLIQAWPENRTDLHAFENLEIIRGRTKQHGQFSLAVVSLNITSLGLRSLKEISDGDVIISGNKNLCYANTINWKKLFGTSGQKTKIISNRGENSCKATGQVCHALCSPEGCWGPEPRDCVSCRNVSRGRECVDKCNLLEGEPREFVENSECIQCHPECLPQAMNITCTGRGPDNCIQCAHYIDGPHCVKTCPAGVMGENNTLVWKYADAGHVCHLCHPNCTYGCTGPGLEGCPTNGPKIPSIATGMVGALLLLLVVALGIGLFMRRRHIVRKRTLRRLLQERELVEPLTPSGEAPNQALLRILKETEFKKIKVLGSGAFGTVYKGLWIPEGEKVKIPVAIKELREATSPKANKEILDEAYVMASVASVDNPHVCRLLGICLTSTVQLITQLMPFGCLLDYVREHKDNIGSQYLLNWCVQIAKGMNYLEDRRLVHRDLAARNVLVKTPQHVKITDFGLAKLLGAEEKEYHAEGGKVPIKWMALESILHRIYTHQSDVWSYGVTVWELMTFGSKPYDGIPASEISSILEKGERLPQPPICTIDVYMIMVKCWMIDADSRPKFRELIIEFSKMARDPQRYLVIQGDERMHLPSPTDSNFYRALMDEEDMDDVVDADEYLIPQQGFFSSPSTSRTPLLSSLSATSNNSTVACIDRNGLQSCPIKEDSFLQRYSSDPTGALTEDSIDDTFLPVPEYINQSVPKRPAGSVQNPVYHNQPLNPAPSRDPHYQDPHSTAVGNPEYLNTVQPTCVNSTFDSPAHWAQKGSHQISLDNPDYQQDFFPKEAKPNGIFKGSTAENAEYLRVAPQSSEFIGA

EC50 (Ba/F3 stable cells [1]) | EC50 (Ba/F3 stable cells [2]) | EC50 (Ba/F3 stable cells [3]) | EC50 (Ba/F3 stable cells [4]) | EC50 (Ba/F3 stable cells [5]) | EC50 (Ba/F3 stable cells [6]) | SMILES
≤ 0.2 µM | > 1 µM | ≤ 0.2 µM | > 1 µM | > 1 µM | 0.2 to 1 µM | C=CC(=O)N1CCC(Oc2cc3c(N[C@H](C)c4ccc(F)cc4)ncnc3cc2OC)CC1 [Compound 173, (R)-1-(4-((4-((1-(4-fluorophenyl)ethyl)amino)-7-methoxyquinazolin-6-yl)oxy)piperidin-1-yl)prop-2-en-1-one]
> 1 µM | > 1 µM | > 1 µM | > 1 µM | > 1 µM | > 1 µM | C=CC(=O)N1CCC(Oc2cc3c(C(=O)c4ccc(OC)cc4)ncnc3cc2OC)CC1 [Compound 174, 1-(4-((7-methoxy-4-(4-methoxybenzoyl)quinazolin-6-yl)oxy)piperidin-1-yl)prop-2-en-1-one]
≤ 0.2 µM | 0.2 to 1 µM | ≤ 0.2 µM | 0.2 to 1 µM | 0.2 to 1 µM | ≤ 0.2 µM | C=CC(=O)N1CCC(Oc2cc3c(C(=O)c4ccc(Cl)c(Cl)c4F)ncnc3cc2OC)CC1 [Compound 175, 1-(4-((4-(3,4-dichloro-2-fluorobenzoyl)-7-methoxyquinazolin-6-yl)oxy)piperidin-1-yl)prop-2-en-1-one]
≤ 0.2 µM | ≤ 0.2 µM | ≤ 0.2 µM | ≤ 0.2 µM | ≤ 0.2 µM | ≤ 0.2 µM | C=CC(=O)N1C2CCCC1CC(Oc1cc3c(Nc4ccc(Cl)c(Cl)c4F)ncnc3cc1OC)C2 (stereo not drawn) [Compound 176, 1-(3-((4-((3,4-dichloro-2-fluorophenyl)amino)-7-methoxyquinazolin-6-yl)oxy)-9-azabicyclo[3.3.1]nonan-9-yl)prop-2-en-1-one]
≤ 0.2 µM | ≤ 0.2 µM | ≤ 0.2 µM | ≤ 0.2 µM | ≤ 0.2 µM | ≤ 0.2 µM | C=CC(=O)N1C2CCC1CC(Oc1cc3c(Nc4ccc(Cl)c(Cl)c4F)ncnc3cc1OC)C2 (stereo not drawn) [Compound 177, 1-(3-((4-((3,4-dichloro-2-fluorophenyl)amino)-7-methoxyquinazolin-6-yl)oxy)-8-azabicyclo[3.2.1]octan-8-yl)prop-2-en-1-one]
≤ 0.2 µM | ≤ 0.2 µM | ≤ 0.2 µM | ≤ 0.2 µM | 0.2 to 1 µM | ≤ 0.2 µM | C=CC(=O)N1C2CCCC1CC(Oc1cc3c(Nc4cccc5ccccc45)ncnc3cc1OC)C2 (stereo not drawn) [Compound 178, 1-(3-((7-methoxy-4-(naphthalen-1-ylamino)quinazolin-6-yl)oxy)-9-azabicyclo[3.3.1]nonan-9-yl)prop-2-en-1-one]
≤ 0.2 µM | ≤ 0.2 µM | ≤ 0.2 µM | ≤ 0.2 µM | 0.2 to 1 µM | ≤ 0.2 µM | C=CC(=O)N1C2CCCC1CC(Oc1cc3c(Nc4ccc5ccccc5c4)ncnc3cc1OC)C2 (stereo not drawn) [Compound 179, 1-(3-((7-methoxy-4-(naphthalen-2-ylamino)quinazolin-6-yl)oxy)-9-azabicyclo[3.3.1]nonan-9-yl)prop-2-en-1-one]
≤ 0.2 µM | ≤ 0.2 µM | ≤ 0.2 µM | ≤ 0.2 µM | ≤ 0.2 µM | ≤ 0.2 µM | C=CC(=O)N1C2CCC1CC(Oc1cc3c(Nc4ccc5ccccc5c4)ncnc3cc1OC)C2 (stereo not drawn) [Compound 180, 1-(3-((7-methoxy-4-(naphthalen-2-ylamino)quinazolin-6-yl)oxy)-8-azabicyclo[3.2.1]octan-8-yl)prop-2-en-1-one]
≤ 0.2 µM | ≤ 0.2 µM | ≤ 0.2 µM | ≤ 0.2 µM | ≤ 0.2 µM | ≤ 0.2 µM | C=CC(=O)N1C2CCC1CC(Oc1cc3c(Nc4cccc5ccccc45)ncnc3cc1OC)C2 (stereo not drawn) [Compound 181, 1-(3-((7-methoxy-4-(naphthalen-1-ylamino)quinazolin-6-yl)oxy)-8-azabicyclo[3.2.1]octan-8-yl)prop-2-en-1-one]
0.2 to 1 µM | > 1 µM | ≤ 0.2 µM | 0.2 to 1 µM | > 1 µM | 0.2 to 1 µM | C=CC(=O)N1C2CCCC1CC(Oc1cc3c(Nc4cccc5c4CCC5)ncnc3cc1OC)C2 (stereo not drawn) [Compound 182, 1-(3-((4-((2,3-dihydro-1H-inden-4-yl)amino)-7-methoxyquinazolin-6-yl)oxy)-9-azabicyclo[3.3.1]nonan-9-yl)prop-2-en-1-one]
≤ 0.2 µM | 0.2 to 1 µM | ≤ 0.2 µM | ≤ 0.2 µM | 0.2 to 1 µM | ≤ 0.2 µM | C=CC(=O)N1C2CCC1CC(Oc1cc3c(Nc4cccc5c4CCC5)ncnc3cc1OC)C2 (stereo not drawn) [Compound 183, 1-(3-((4-((2,3-dihydro-1H-inden-4-yl)amino)-7-methoxyquinazolin-6-yl)oxy)-8-azabicyclo[3.2.1]octan-8-yl)prop-2-en-1-one]
≤ 0.2 µM | ≤ 0.2 µM | ≤ 0.2 µM | > 1 µM | 0.2 to 1 µM | 0.2 to 1 µM | C=CC(=O)N1CCCC(c2ccc3ncnc(Nc4ccc(Cl)c(Cl)c4F)c3c2)C1 (stereo not drawn) [Compound 184, 1-(3-(4-((3,4-dichloro-2-fluorophenyl)amino)quinazolin-6-yl)piperidin-1-yl)prop-2-en-1-one]
≤ 0.2 µM | 0.2 to 1 µM | ≤ 0.2 µM | ≤ 0.2 µM | 0.2 to 1 µM | ≤ 0.2 µM | C=CC(=O)N1CCCC(c2cc3c(Nc4ccc(Cl)c(Cl)c4F)ncnc3cc2OC)C1 (stereo not drawn) [Compound 185, 1-(3-(4-((3,4-dichloro-2-fluorophenyl)amino)-7-methoxyquinazolin-6-yl)piperidin-1-yl)prop-2-en-1-one]
≤ 0.2 µM | 0.2 to 1 µM | ≤ 0.2 µM | > 1 µM | 0.2 to 1 µM | ≤ 0.2 µM | C=CC(=O)N1CCC=C(c2cc3c(Nc4ccc(Cl)c(Cl)c4F)ncnc3cc2OC)C1 [Compound 186, 1-(5-(4-((3,4-dichloro-2-fluorophenyl)amino)-7-methoxyquinazolin-6-yl)-3,6-dihydropyridin-1(2H)-yl)prop-2-en-1-one]
≤ 0.2 µM | 0.2 to 1 µM | ≤ 0.2 µM | 0.2 to 1 µM | 0.2 to 1 µM | 0.2 to 1 µM | C=CC(=O)N1CCC=C(c2ccc3ncnc(Nc4ccc(Cl)c(Cl)c4F)c3c2)C1 [Compound 187, 1-(5-(4-((3,4-dichloro-2-fluorophenyl)amino)quinazolin-6-yl)-3,6-dihydropyridin-1(2H)-yl)prop-2-en-1-one]
≤ 0.2 µM | 0.2 to 1 µM | ≤ 0.2 µM | ≤ 0.2 µM | 0.2 to 1 µM | ≤ 0.2 µM | C=CS(=O)(=O)N1CCCC(c2ccc3ncnc(Nc4ccc(Cl)c(Cl)c4F)c3c2)C1 (stereo not drawn) [Compound 188, N-(3,4-dichloro-2-fluorophenyl)-6-(1-(vinylsulfonyl)piperidin-3-yl)quinazolin-4-amine]
≤ 0.2 µM | 0.2 to 1 µM | ≤ 0.2 µM | ≤ 0.2 µM | ≤ 0.2 µM | ≤ 0.2 µM | C=CS(=O)(=O)N1CCC=C(c2ccc3ncnc(Nc4ccc(Cl)c(Cl)c4F)c3c2)C1 [Compound 190, N-(3,4-dichloro-2-fluorophenyl)-6-(1-(vinylsulfonyl)-1,2,5,6-tetrahydropyridin-3-yl)quinazolin-4-amine]
